Laboratory results taken from patent publication US20150005288A1, “SUBSTITUTED PHENYLIMIDAZOPYRAZOLES AND USE THEREOF” (Bayer Intellectual Property GmbH, priority 2012, published 2015).

These compounds were tested against T1, intracellular domain of human Tie2 (GST fusion protein) (Homo sapiens, UniProt Q02763) (assay: Tie2 kinase assay (Tie2-TR-FRET)). Settings: ATP concentration 1 mM, in some cases means of several independent determinations.
T1 construct: intracellular domain of human Tie2 (amino acids 776-1124); made in house; host or cells: Baculovirus-infected insect cells (Hi5)
Format: biochemical
Protocol: The Tie2-inhibitory activity of the substances according to the invention was determined with the aid of one of the Tie2-TR-FRET assays described in the sections below at an ATP concentration of 1 mM (TR-FRET=Time-Resolved Fluorescence Resonance Energy Transfer):
The enzyme used was a recombinant fusion protein of glutathione S-transferase (GST) and the intracellular domain of human Tie2 (amino acids 776-1124) which was expressed in Baculovirus-infected insect cells (Hi5) and was purified by affinity chromatography on glutathione-Sepharose. Alternatively, it is also possible to use commercially available GST-His6-Tie2 fusion protein (ProQinase GmbH, Freiburg im Breisgau, Germany). The substrate used for the kinase reaction was the biotinylated peptide biotin-Ahx-[…] (C-terminus in amide form) which is commercially available (for example from Biosyntan, Berlin, Germany).
For the assay, 50 nl of a 100-fold concentrated solution of the respective test substance in DMSO were pipetted into a black low-volume 384-well microtitre plate (Greiner Bio-One, Frickenhausen, Germany) 2 μl of a solution of the Tie2 fusion protein in assay buffer [50 mM HEPES/HCl pH 7, 10 mM MgCl2, 2.5 mM MnCl2, 1 mM dithiothreitol, 0.01% (v/v) Nonidet P-40, 0.1% (w/v) bovine serum albumin (BSA), 1× Complete EDTA-free protease inhibitor mixture (Roche)] were added, and the mixture was incubated for 15 min to allow pre-binding of the substance to the enzyme prior to the kinase reaction. The kinase reaction was then started by adding 3 μl of a solution of adenosine triphosphate (ATP, 1.67 mM→final concentration in 5 μl assay volume=1 mM) and substrate (1.67 μM→final concentration in 5 μl assay volume=1 μM) in assay buffer, and the resulting mixture was incubated for a reaction time of 60 min at 22° C. The concentration of the Tie2 fusion protein was adapted to the respective activity of the enzyme and adjusted such that the assay was carried out in the linear range. Typical concentrations were in the range of 30 ng/ml.
The reaction was stopped by addition of 5 μl of a solution of TR-FRET detection reagents [200 nM streptavidin-XL665 and 2 nM PT66-Eu chelate, a europium chelate-labelled anti-phosphotyrosine antibody (Perkin-Elmer); alternatively, it is also possible to use PT66-Tb cryptate (Cisbio Bioassays, Codolet, France)] in aqueous EDTA solution[90 mM EDTA, 0.28% (w/v) bovine serum albumin (BSA) in 50 mM HEPES pH 7.5]. The resulting mixture was incubated at 22° C. for 1 h to allow formation of the complex of the biotinylated phosphorylated substrate and the detection reagents. The amount of phosphorylated substrate was then determined by measuring the resonance energy transfer from PT66-Eu chelate to streptavidin-XL665. To this end, the fluorescence emissions at 620 nm and 665 nm after excitation at 350 nm were measured in a TR-FRET measuring instrument (for example Viewlux, Perkin-Elmer). The ratio of the emissions at 665 nm and at 620 nm was taken as a measure of the amount of phosphorylated substrate.
Usually, the test substance in question was tested on the same microtitre plate at […] different concentrations in the range from 20 μM to 0.073 nM (for example at 20 μM, 5.7 μM, 1.6 μM, 0.47 μM, 0.13 μM, 38 nM, 11 nM, 3.1 nM, 0.89 nM, 0.25 nM and 0.073 nM) in duplicate for each concentration. The dilution series were prepared prior to the assay at the stage of the 100-fold concentrated solution by serial dilution (the exact concentrations may vary depending on the pipettors used in each case). IC50 values were calculated using a 4-parameter fit, with the aid of inhouse software.
Table 1 below lists the IC50 values from this assay for individual working examples (in some cases as means of several independent individual determinations): […]

T1 sequence (Q02763 776-1124): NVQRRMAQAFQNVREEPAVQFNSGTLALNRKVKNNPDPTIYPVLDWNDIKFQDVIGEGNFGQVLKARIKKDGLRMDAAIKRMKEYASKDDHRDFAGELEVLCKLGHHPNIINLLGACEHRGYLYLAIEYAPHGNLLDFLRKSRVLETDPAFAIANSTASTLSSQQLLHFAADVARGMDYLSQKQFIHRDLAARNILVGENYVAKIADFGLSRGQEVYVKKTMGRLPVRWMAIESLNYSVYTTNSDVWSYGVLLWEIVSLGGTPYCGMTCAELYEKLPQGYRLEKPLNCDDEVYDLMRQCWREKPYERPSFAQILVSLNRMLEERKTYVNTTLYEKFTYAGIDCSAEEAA

Compound	IC50 [nM]
Cc1ccc(NC(=O)c2ccc(F)c(C(F)(F)F)c2)cc1-n1ccn2nc(-c3cccnc3)cc12 [Example 45, 4-Fluoro-N-{4-methyl-3-[6-(pyridin-3-yl)-1H-imidazo[1,2-b]pyrazol-1-yl]phenyl}-3-(trifluoromethyl)benzamide]	740
Cc1ccc(NC(=O)c2cccc(C(F)(F)F)c2F)cc1-n1ccn2nc(-c3cccnc3)cc12 [Example 46, 2-Fluoro-N-{4-methyl-3-[6-(pyridin-3-yl)-1H-imidazo[1,2-b]pyrazol-1-yl]phenyl}-3-(trifluoromethyl)benzamide]	980
Cc1ccc(NC(=O)c2cc(-n3ccnc3C)cc(C(C)(C)C)c2)cc1-n1ccn2nc(-c3cccnc3)cc12 [Example 47, 3-tert-Butyl-5-(2-methyl-1H-imidazol-1-yl)-N-{4-methyl-3-[6-(pyridin-3-yl)-1H-imidazo[1,2-b]-pyrazol-1-yl]phenyl}benzamide]	0.3
Cc1ccc(NC(=O)c2cc(C(C)(C)C)cc(C(C)(C)O)c2)cc1-n1ccn2nc(-c3cccnc3)cc12 [Example 49, 3-tert-Butyl-5-(2-hydroxypropan-2-yl)-N-{4-methyl-3-[6-(pyridin-3-yl)-1H-imidazo[1,2-b]-pyrazol-1-yl]phenyl}benzamide]	0.3
Cc1ccc(NC(=O)c2cc(C#N)cc(C(C)(C)C)c2)cc1-n1ccn2nc(-c3cccnc3)cc12 [Example 50, 3-tert-Butyl-5-cyano-N-{4-methyl-3-[6-(pyridin-3-yl)-1H-imidazo[1,2-b]pyrazol-1-yl]phenyl}-benzamide]	1.2
Cc1cc(C)cc(C(=O)Nc2ccc(C)c(-n3ccn4nc(-c5cccnc5)cc34)c2)c1 [Example 52, 3,5-Dimethyl-N-{4-methyl-3-[6-(pyridin-3-yl)-1H-imidazo[1,2-b]pyrazol-1-yl]phenyl}benzamide]	230
Cc1ccc(NC(=O)c2cc(C(C)C)ccc2O)cc1-n1ccn2nc(-c3cccnc3)cc12 [Example 53, 2-Hydroxy-N-{4-methyl-3-[6-(pyridin-3-yl)-1H-imidazo[1,2-b]pyrazol-1-yl]phenyl}-5-(propan-2-yl)benzamide]	340
Cc1ccc(NC(=O)c2cccc(-c3cccc(C#N)c3)c2)cc1-n1ccn2nc(-c3cccnc3)cc12 [Example 54, 3′-Cyano-N-{4-methyl-3-[6-(pyridin-3-yl)-1H-imidazo[1,2-b]pyrazol-1-yl]phenyl}biphenyl-3-carboxamide]	670
Cc1ccc(NC(=O)c2cccc(-n3cccn3)c2)cc1-n1ccn2nc(-c3cccnc3)cc12 [Example 55, N-{4-Methyl-3-[6-(pyridin-3-yl)-1H-imidazo[1,2-b]pyrazol-1-yl]phenyl}-3-(1H-pyrazol-1-yl)-benzamide]	275
Cc1ccc(NC(=O)c2cccc(N3CCCC3)c2)cc1-n1ccn2nc(-c3cccnc3)cc12 [Example 56, N-{4-Methyl-3-[6-(pyridin-3-yl)-1H-imidazo[1,2-b]pyrazol-1-yl]phenyl}-3-(pyrrolidin-1-yl)-benzamide]	52
Cc1ccc(NC(=O)c2cc(N3CCCC3)ccc2Cl)cc1-n1ccn2nc(-c3cccnc3)cc12 [Example 57, 2-Chloro-N-{4-methyl-3-[6-(pyridin-3-yl)-1H-imidazo[1,2-b]pyrazol-1-yl]phenyl}-5-(pyrrolidin-1-yl)benzamide]	995
Cc1ccc(NC(=O)c2ccc(Cl)c(N3CCCCC3)c2)cc1-n1ccn2nc(-c3cccnc3)cc12 [Example 58, 4-Chloro-N-{4-methyl-3-[6-(pyridin-3-yl)-1H-imidazo[1,2-b]pyrazol-1-yl]phenyl}-3-(piperidin-1-yl)benzamide]	330
Cc1ccc(NC(=O)c2cccc(N(C)C)c2)cc1-n1ccn2nc(-c3cccnc3)cc12 [Example 59, 3-(Dimethylamino)-N-{4-methyl-3-[6-(pyridin-3-yl)-1H-imidazo[1,2-b]pyrazol-1-yl]phenyl}-benzamide]	600
Cc1ccc(NC(=O)c2cccc(OC(C)C)c2)cc1-n1ccn2nc(-c3cccnc3)cc12 [Example 60, N-{4-Methyl-3-[6-(pyridin-3-yl)-1H-imidazo[1,2-b]pyrazol-1-yl]phenyl}-3-(propan-2-yloxy)-benzamide]	125
CCCOc1cccc(C(=O)Nc2ccc(C)c(-n3ccn4nc(-c5cccnc5)cc34)c2)c1 [Example 61, N-{4-Methyl-3-[6-(pyridin-3-yl)-1H-imidazo[1,2-b]pyrazol-1-yl]phenyl}-3-propoxybenzamide]	260
Cc1ccc(NC(=O)c2cccc(OCC(C)C)c2)cc1-n1ccn2nc(-c3cccnc3)cc12 [Example 62, 3-(2-Methylpropoxy)-N-{4-methyl-3-[6-(pyridin-3-yl)-1H-imidazo[1,2-b]pyrazol-1-yl]phenyl}-benzamide]	500
COc1cc(OC)cc(C(=O)Nc2ccc(C)c(-n3ccn4nc(-c5cccnc5)cc34)c2)c1 [Example 63, 3,5-Dimethoxy-N-{4-methyl-3-[6-(pyridin-3-yl)-1H-imidazo[1,2-b]pyrazol-1-yl]phenyl}benzamide]	770
Cc1ccc(NC(=O)c2ccnc(C(C)(C)C)c2)cc1-n1ccn2nc(-c3cccnc3)cc12 [Example 64, 2-tert-Butyl-N-{4-methyl-3-[6-(pyridin-3-yl)-1H-imidazo[1,2-b]pyrazol-1-yl]phenyl}isonicotinamide]	41
Cc1ccc(NC(=O)c2cc(Cl)nc(C(C)(C)C)c2)cc1-n1ccn2nc(-c3cccnc3)cc12 [Example 65, 2-tert-Butyl-6-chloro-N-{4-methyl-3-[6-(pyridin-3-yl)-1H-imidazo[1,2-b]pyrazol-1-yl]phenyl}isonicotinamide]	57
Cc1ccc(NC(=O)c2ccnc(N3CCCC3)c2)cc1-n1ccn2nc(-c3cccnc3)cc12 [Example 67, N-{4-Methyl-3-[6-(pyridin-3-yl)-1H-imidazo[1,2-b]pyrazol-1-yl]phenyl}-2-(pyrrolidin-1-yl)-pyridine-4-carboxamide]	57
Cc1ccc(NC(=O)c2ccnc(N3CCCCC3)c2)cc1-n1ccn2nc(-c3cccnc3)cc12 [Example 68, N-{4-Methyl-3-[6-(pyridin-3-yl)-1H-imidazo[1,2-b]pyrazol-1-yl]phenyl}-2-(piperidin-1-yl)-pyridine-4-carboxamide]	71
Cc1ccc(NC(=O)c2ccnc(N3CCOCC3)c2)cc1-n1ccn2nc(-c3cccnc3)cc12 [Example 69, N-{4-Methyl-3-[6-(pyridin-3-yl)-1H-imidazo[1,2-b]pyrazol-1-yl]phenyl}-2-(morpholin-4-yl)-pyridine-4-carboxamide]	580
O=C(Nc1ccc(F)c(-n2ccn3nc(-c4cccnc4)cc23)c1)c1cccc(S(F)(F)(F)(F)F)c1 [Example 70, N-{4-Fluoro-5-[6-(pyridin-3-yl)-1H-imidazo[1,2-b]pyrazol-1-yl]phenyl}-3-(pentafluoro-λ^6-sulphanyl)benzamide]	105
N#Cc1cc(C(=O)Nc2ccc(F)c(-n3ccn4nc(-c5cccnc5)cc34)c2)cc(S(F)(F)(F)(F)F)c1 [Example 71, 3-Cyano-N-{4-fluoro-5-[6-(pyridin-3-yl)-1H-imidazo[1,2-b]pyrazol-1-yl]phenyl}-3-(pentafluoro-λ^6-sulphanyl)benzamide]	34
COc1ccc(NC(=O)c2cccc(S(F)(F)(F)(F)F)c2)cc1-n1ccn2nc(-c3cccnc3)cc12 [Example 72, N-{4-Methoxy-3-[6-(pyridin-3-yl)-1H-imidazo[1,2-b]pyrazol-1-yl]phenyl}-3-(pentafluoro-λ^6-sulphanyl)benzamide]	350
